Test results reported in patent US7851472B2, “Triazolophthalazines” (NYCOMED GmbH, priority 2004, dated 2010).
“Also recorded” adds a separate entry of the source. Ends that are not written are not given here.

How the values were obtained:
[1] = system: HUVEC monolayers; assay: Inhibition of macromolecule (HRP) permeability of thrombin-stimulated HUVEC monolayers; format: cell-based, human; settings: for IC50: Homo sapiens, 1 h, HUVEC, 1 μM RP73401, 10 μM Motapizone, 1 mM SNP or 100 nM ANP, HRP passage after 60 min, read-out: Inhibition of SNP- or ANP-induced permeability, −log IC50 (converted); for IC50 / Thrombin-induced increase of HRP permeability (hyperpermeability): 1 U/ml thrombin; for Thrombin-induced increase of HRP permeability (hyperpermeability): 10 μM Motapizone (PDE3) together with 1 μM RP73401 (PDE4)
Method: The procedure to measure macromolecule permeability of endothelial cell monolayers followed the method described by Langeler & van Hinsbergh (1988) with modifications. Human umbilical vein endothelial cells were isolated from umbilical cords according to standard procedures (Jaffe et al. 1973) and cultured in endothelial cell basal medium (EBM) supplemented with 2% FCS, 0.5 ng/ml VEGF, 10 ng/ml bFGF, 5 ng/ml EGF, 20 ng/ml Long R3 IGF-1, 0.2 μg/ml hydrocortisone, 1 μg/ml ascorbic acid, 22.5 μg/ml heparin, 50 μg/ml gentamicin, 50 ng/ml amphotericin B (EGM2 purchased from Promocell GmbH, Heidelberg, Germany). At confluency, cells were trypsinized and replated at 73000 cells per well on 3 μm polycarbonate filter Transwell inserts (Costar GmbH, Bodenheim, Germany) precoated with 10 μg cm^2 −1 Fibronectin (Sigma, Taufkirchen, Germany). HUVECs were cultured in EGM2 (100 μl in the upper wells and 600 μl in the lower wells) over four days prior the experiments and medium was changed every other day. At the day of the experiment culture medium was replaced by M199 with 1% human serum albumin. Endothelial cells were preincubated with cyclic nucleotide modifiers (the selective PDE3 inhibitor motapizone, the selective PDE4 inhibitor RP73401, the cGMP generators ANP or SNP and PDE2 inhibitors) for 15 min. HUVECs were then stimulated with Thrombin (1 U ml^−1) (Sigma, Taufkichen, Germany) and horsh radish peroxidase (5 μg/ml) (Sigma, Taufkirchen, Germany) as the macromolecule marker protein was added to the upper wells. Following 1 h incubation time Transwells were removed and the activity of horsh radish peroxidase that penetrated the endothelial cell monolayer was measured in the lower wells with the 3,3′, 5,5′-tetramethylbenzidine liquid substrate system from Sigma (Taufkirchen, Germany).
In parallel, compounds according to the invention can inhibit Thrombin-induced permeability of HUVEC monolayers for horsh radish peroxidase (HRP) as a macromolecule marker. […] The concentration-dependent inhibition of HRP permeability at different concentrations was assessed from the percent inhibition in the presence and absence of the PDE2 inhibitors and in the presence of 1 μM RP73401, 10 μM Motapizone and 100 nM ANP.
HUVEC cells on 3 μm polycarbonate filters (Transwells) were preincubated with 1 μM RP73401 (to block PDE4) and 10 μM Motapizone (to block PDE3), 1 mM SNP or 100 nM ANP and 1 μM of test sample over 15 min and then stimulated with 1 U/ml thrombin. HRP passage into the lower wells was assessed after 60 min.

| Molecule | IC50 [1] [nM] | also measured |
| --- | --- | --- |
| COc1ccc(-c2nnc3c4ccccc4c(Nc4cccc(NC(=O)C5CCN(C(C)=O)CC5)c4)nn23)cc1 [Compound 54, 1-Acetyl-piperidine-4-carboxylic acid {3-[3-(4-methoxy-phenyl)-[1,2,4]triazolo[3,4-a]phthalazin-6-ylamino]-phenyl}-amide] | 2 to 63.1 |  |
| COCCC(=O)Nc1ccc(Nc2nn3c(-c4ccc(OC)cc4)nnc3c3ccccc23)cc1 [Compound 5, 3-Methoxy-N-{4-[3-(4-methoxy-phenyl)-[1,2,4]triazolo[3,4-a]phthalazin-6-ylamino]-phenyl}-propionamide] | 2 to 63.1 |  |
| O=C(Nc1ccc(Nc2nn3c(-c4ccccc4Br)nnc3c3ccccc23)cc1)C1CCCCN1 (centres unmarked) [Compound 30, Piperidine-2-carboxylic acid {4-[3-(2-bromo-phenyl)-[1,2,4]triazolo[3,4-a]phthalazin-6-ylamino]-phenyl}-amide] | 2 to 63.1 |  |
| COc1ccc(-c2nnc3c4ccccc4c(Nc4ccc(NC(=O)c5ccoc5)cc4)nn23)cc1 [Compound 21, Furan-3-carboxylic acid {4-[3-(4-methoxy-phenyl)-[1,2,4]triazolo[3,4-a]phthalazin-6-ylamino]-phenyl}-amide] | 2 to 63.1 |  |
| COc1ccc(-c2nnc3c4ccccc4c(Nc4ccc(NC(=O)c5ccccc5)cc4)nn23)cc1 [Compound 33, N-{4-[3-(4-Methoxyphenyl)-[1,2,4]triazolo[3,4-a]phthalazin-6-ylamino]-phenyl}-benzamide] |  | melting point: 323 °C |
| COc1ccc(-c2nnc3c4ccccc4c(Nc4ccc(NC(=O)C(F)(F)F)cc4)nn23)cc1 [Compound 17, 2,2,2-Trifluoro-N-{4-[3-(4-methoxy-phenyl)-[1,2,4]triazolo[3,4-a]phthalazin-6-ylamino]-phenyl}-acetamide] | 2 to 63.1 |  |
| COc1ccc(-c2nnc3c4ccccc4c(Nc4ccc(NC(=O)C5CCCCN5)cc4)nn23)cc1 (centres unmarked) [Compound 12, Piperidine-2-carboxylic acid {4-[3-(4-methoxy-phenyl)-[1,2,4]triazolo[3,4-a]phthalazin-6-ylamino]-phenyl}-amide] | 2 to 63.1 |  |
| COc1ccc(C(=O)Nc2c(Cl)cncc2Cl)cc1OC1CCCC1 [RP73401, reference compound] |  | Thrombin-induced increase of HRP permeability (hyperpermeability) [1]: completely abolished; also recorded: completely blocked |
| CNC(=O)c1cccc(Nc2nn3c(-c4ccc(OC)cc4)nnc3c3ccccc23)c1 [Compound 110, 3-[3-(4-Methoxyphenyl)-[1,2,4]triazolo[3,4-a]phthalazin-6-ylamino]-N-methylbenzamide] |  | melting point: 316 °C |
| CNC(=O)c1ccc(Nc2nn3c(-c4ccc(OC)cc4)nnc3c3ccccc23)cc1 [Compound 85, 4-[3-(4-Methoxy-phenyl)-[1,2,4]triazolo[3,4-a]phthalazin-6-ylamino]-N-methyl-benzamide] | 2 to 63.1 |  |
| COc1ccc(-c2nnc3c4ccccc4c(Nc4ccc(NC(=O)C5CC5)cc4)nn23)cc1 [Compound 18, Cyclopropanecarboxylic acid {4-[3-(4-methoxy-phenyl)-[1,2,4]triazolo[3,4-a]phthalazin-6-ylamino]-phenyl}-amide] | 2 to 63.1 |  |
| COCC(=O)Nc1ccc(Nc2nn3c(-c4ccc(OC)cc4)nnc3c3ccccc23)cc1 [Compound 4, 2-Methoxy-N-{4-[3-(4-methoxy-phenyl)-[1,2,4]triazolo[3,4-a]phthalazin-6-ylamino]-phenyl}-acetamide] | 2 to 63.1 |  |
| COc1ccc(-c2nnc3c4ccccc4c(Nc4ccc(NC(=O)CN5CCOCC5)cc4)nn23)cc1 [Compound 25, N-{4-[3-(4-Methoxy-phenyl)-[1,2,4]triazolo[3,4-a]phthalazin-6-ylamino]-phenyl}-2-morpholin-4-yl-acetamide] | 2 to 63.1 |  |
| COc1ccc(-c2nnc3c4ccccc4c(Nc4cccc(NC(=O)C5CC5)c4)nn23)cc1 [Compound 38, Cyclopropanecarboxylic acid {3-[3-(4-methoxy-phenyl)-[1,2,4]triazolo[3,4-a]phthalazin-6-ylamino]-phenyl}-amide] | 2 to 63.1 |  |
| ANP: cGMP generator used to augment cGMP and activate PDE2 (SLRRSSCFGGRMDRIGAQSGLGCNSFRY; ends and bridges not checked; cysteine pairing not given here; UniProt P01160 124-151, looked up) [reference compound] |  | Effect on the inhibition of permeability by PDE3 and 4 inhibition ([1]; ANP (100 nM) or SNP (1 mM) in additional presence of 10 μM Motapizone and 1 μM RP73401): partially reversed |
| COc1ccc(-c2nnc3c4ccccc4c(Nc4cccc(C(N)=O)c4)nn23)cc1 [Compound 109, 3-[3-(4-Methoxyphenyl)-[1,2,4]triazolo[3,4-a]phthalazin-6-ylamino]-benzamide] |  | melting point: 296 °C |
| CC1CC(=O)NN=C1c1cc(-n2ccnc2)cs1 (centres unmarked) [Motapizone, reference compound] |  | Thrombin-induced increase of HRP permeability (hyperpermeability) [1]: completely abolished; also recorded: completely blocked |
| COc1ccc(-c2nnc3c4ccccc4c(Nc4ccc(NC(=O)c5c[nH]cn5)cc4)nn23)cc1 [Compound 11, 1H-Imidazole-4-carboxylic acid {4-[3-(4-methoxy-phenyl)-[1,2,4]triazolo[3,4-a]phthalazin-6-ylamino]-phenyl}-amide] | 2 to 63.1 |  |
| COc1ccc(-c2nnc3c4ccccc4c(Nc4cccc(NC(C)=O)c4)nn23)cc1 [Compound 66, N-{3-[3-(4-Methoxyphenyl)-[1,2,4]triazolo[3,4-a]phthalazin-6-ylamino]-phenyl}-acetamide] |  | melting point: 295 °C |
| COc1ccc(-c2nnc3c4ccccc4c(Nc4ccc(N)cc4)nn23)cc1 [Compound 1, N-[3-(4-Methoxyphenyl)-[1,2,4]triazolo[3,4-a]phthalazin-6-yl]-benzene-1,4-diamine] |  | melting point: 295 °C |
